Data on four compounds can be found in patent US20060249167A1, “Flavor ingredients for cooling preparations” (priority 2003, published 2006).

A short description of data set [1]: Organoleptic (odor and flavor) description of the compound and its isomers. To be noted: in vivo.

In the case of `CC1CCC(C(C)C)C2(C1)OC(=O)C(C)O2` (stereo not shown) [Compound (I), 6-isopropyl-3,9-dimethyl-1,4-dioxaspiro[4.5]decan-2-one], in data set [1], the flavor result is “minty, fresh, piperita type” and the odor result is “minty, menthone type odor”.

For the compound `CC(C)[C@@H]1CC[C@@H](C)CC12OC(=O)[C@H](C)O2` (stereo partly drawn) [Compound of example 1a, (3S, 6S, 9R)-6-isopropyl-3,9-dimethyl-1,4-dioxaspiro[4.5]decan-2-one], in data set [1], the flavor result was “interesting minty note with refreshing effect”.

On to `CC(C)[C@@H]1CC[C@@H](C)C[C@@]12OC(=O)[C@H](C)O2` [Compound of example 1b, (3S, 5R, 6S, 9R)-6-isopropyl-3,9-dimethyl-1,4-dioxaspiro[4.5]decan-2-one], for which the flavor result in data set [1] is “more of the cooling type with a minty connotation”; in data set [1] (listed as (3S,5R,6S,9R) isomer) it was “stronger and more lingering effect”.

For the compound `CC(C)[C@@H]1CC[C@@H](C)C[C@]12OC(=O)[C@H](C)O2` [Compound of example 1c, (3S, 5S, 6S, 9R)-6-isopropyl-3,9-dimethyl-1,4-dioxaspiro[4.5]decan-2-one], the melting point (commonly the temperature of the solid-liquid transition) is 33 to 34 °C. Further, the flavor entry in data set [1] is reported as “more of the cooling type with a minty connotation”.
